Assay results taken from US8318980B2, “UV absorbing compounds” (Fujifilm Manufacturing Europe B.V., priority 2007, dated 2012).

How the values were obtained:
human skin = assay: Skin penetration test in diffusion cell; type: in vitro ADME; conditions: human skin, diffusion cell; for penetration through the skin (UV-analysis of collected receptor fluids), in words: 20 hrs
Experimental: The skin-penetration was evaluated based on the same method described on page 21 of WO2006/009451. FIG. 2 is a drawing of the skin penetration test equipment, wherein (1) indicates the position of the test sample (donor compound), (2) an ⅛″ OD× 1/32″ wall tubing, (3) the receptor input, (4) the receptor compartment and (5) the compound and receptor output that is subjected to analysis.
A compound 3 donor solution was prepared by dissolving 30 mg of compound 3 in 4 ml EtOH and 7 ml phosphate buffer (PBS) at pH 7.4. Compound 4, 6, 7, 8 and 9 donor solutions were prepared by dispersing 80 mg of these compounds in olive oil.
For each compound 4 pieces of human skin (Ø ca 3 cm, mostly epidermis) were applied on a dialysis membrane and mounted into the diffusion cell shown in the FIG. 2. The figure is a schematic drawing of the diffusion cell, wherein is indicated 1: donor compound, 2: receptor compartment, 3: receptor input, 4: compound and receptor output for analysis, 5: ⅛″ OD× 1/32″ wall tubing. The cells were mounted on a temperature controlling and stirring device. The temperature was kept at 37°. The receptor fluid was a PBS buffer. The receptor compartment was stirred magnetically. 400 μl of the donor solution was applied. The receptor fluid flowing at a speed of 1 ml/hr was collected into glass tubes (1 tube/2 hrs). After 20 hrs the penetration experiment was terminated.
Furthermore the skin parts were extracted with DMSO to dissolve any UV-absorber in the epidermis. The extracts were analysed by UV.

[1] = Spectral analysis: UV extinction value E at 375 nm; type: physicochemical; conditions: 1% solution in DMSO at 375 nm
Text: The aminobutadiene compounds according to the present invention have a typical extinction value E of about 1100 to about 1500 AU/cm of a 1% solution in dimethylsulfoxide (DMSO, Sigma Aldrich ACS spectrophotometric grade) at 375 nm, which is typically the wavelength of the absorption maximum of such compounds. The exact value of E depends on the relative contribution of the core and the R-groups to the molecular weight, while the exact wavelength of the absorption maximum depends on the type of substituents. Spectra were obtained on a HP 8452A diode array spectrophotometer against a DMSO blanc.

[2] = Heat stability test (UV-absorption left after storage at 50° C.); type: physicochemical; conditions: for Heat stability: UV-absorption left after 5 days: 5 days at 50° C. in the dark; for Heat stability: UV-absorption left after 5 days / Heat stability: UV-absorption left after 50 days / Heat stability: UV-absorption left after 100 days: 1.5% in C12-C15 alkyl benzoate oil (compound 12: 5% in water), 375 nm versus sample stored at room temperature; for Heat stability: UV-absorption left after 50 days: 50 days at 50° C. in the dark; for Heat stability: UV-absorption left after 100 days: 100 days at 50° C. in the dark; for heat stability, in words: in C12-C15 alkylbenzoate oils
Experimental: Hereto, 1.5% solutions were prepared of compounds 4-11 and 13 in C12-C15 alkyl benzoate oil. […] The solutions were stored in closed vessels at 50° C. in the dark. After 5, 50 and 100 days, the UV-absorption of a diluted sample was measured at 375 nm comparative to a corresponding sample stored at room temperature. The UV-absorption left after each time span is shown in Table 4 indicated by + and − signs. ++ means >95% left, +− implies between 50-95% left, − indicates <50% left.

[3] = Solubility test in C12-C15 alkyl benzoate oil (Finsolv TN); type: physicochemical; parameters: key to Solubility in Finsolv TN, dissolved amount (m/m %) 1% / Solubility in Finsolv TN, dissolved amount (m/m %) 5% / Solubility in Finsolv TN, dissolved amount (m/m %) 20% / Solubility in Finsolv TN, dissolved amount (m/m %) 50% / Solubility in Finsolv TN, dissolved amount (m/m %) 80% / Solubility in Finsolv TN, dissolved amount (m/m %) 90%: +=well-soluble; −=not soluble
Experimental: The aminobutadiene compounds according to the present invention have an optimised solubility for cosmetic oils. […] In Table 3, the solubility of compounds 4, 12 and 13 is shown at various concentrations (+=well-soluble; -=not soluble). The compounds were dissolved at 80° C. while stirring for 1 hour and cooled down to room temperature. After 24 hours the solutions were inspected for any precipitates or crystals.

extinction E [1] [au/cm] | Solubility in Finsolv TN, dissolved amount (m/m %) 1% ([3]; 1% m/m, dissolved at 80° C. for 1 hour, cooled to room temperature, inspected after 24 hours) | Solubility in Finsolv TN, dissolved amount (m/m %) 5% ([3]; 5% m/m, dissolved at 80° C. for 1 hour, cooled to room temperature, inspected after 24 hours) | Solubility in Finsolv TN, dissolved amount (m/m %) 20% ([3]; 20% m/m, dissolved at 80° C. for 1 hour, cooled to room temperature, inspected after 24 hours) | Solubility in Finsolv TN, dissolved amount (m/m %) 50% ([3]; 50% m/m, dissolved at 80° C. for 1 hour, cooled to room temperature, inspected after 24 hours) | Solubility in Finsolv TN, dissolved amount (m/m %) 80% ([3]; 80% m/m, dissolved at 80° C. for 1 hour, cooled to room temperature, inspected after 24 hours) | Solubility in Finsolv TN, dissolved amount (m/m %) 90% ([3]; 90% m/m, dissolved at 80° C. for 1 hour, cooled to room temperature, inspected after 24 hours) | solubility in C12-C15 alkyl benzoate oil (Finsolv TN), in words ([3]; all concentrations) | Compound | penetration into or through the skin (UV analysis of DMSO skin extracts), in words (human skin) | penetration through the skin (UV-analysis of collected receptor fluids), in words (human skin) | Heat stability: UV-absorption left after 5 days [2] | Heat stability: UV-absorption left after 50 days [2] | Heat stability: UV-absorption left after 100 days [2] | heat stability, in words [2]
1400 | + | + | + | + | + | + | very well soluble at all concentrations | CCCCCCCCOC(=O)C(=CC=CN(CCCCCCN(C=CC=C(C(=O)OCCCCCCCC)S(=O)(=O)c1ccccc1)Cc1ccccc1)CCCCCCN(C=CC=C(C(=O)OCCCCCCCC)S(=O)(=O)c1ccccc1)Cc1ccccc1)S(=O)(=O)c1ccccc1 [Compound 4] | do not penetrate into or through the skin | no penetration | ++ (++ means >95% left) | ++ (++ means >95% left) | ++ (++ means >95% left) | very heat stable
– | – | – | – | – | – | – | – | CCCCCCCCOC(=O)C(=CC=CN(CCCC)CCCCCCN(C=CC=C(C(=O)OCCCCCCCC)S(=O)(=O)c1ccccc1)CCCCCCN(C=CC=C(C(=O)OCCCCCCCC)S(=O)(=O)c1ccccc1)CCCC)S(=O)(=O)c1ccccc1 [Compound 6] | do not penetrate into or through the skin | no penetration | ++ (++ means >95% left) | ++ (++ means >95% left) | ++ (++ means >95% left) | very heat stable
